From US20120141496A1, “IAP BIR DOMAIN BINDING COMPOUNDS” (AEGERA THERAPEUTICS, INC., priority 2007, published 2012)

What was measured:
SKOV-3 = assay: Viability assay (MTT based), SKOV-3; assay type: cell-based; settings: Homo sapiens, SK-OV-3, SKOV-3 cells, 72 hours, read-out: SKOV-3 ED50
Method: (§1) MDA-MD-231 (breast) and SKOV-3 cancer cells were cultured in RPMI1640 media supplemented with 10% FBS and 100 units/mL of Penicillin and Streptomycin.
(§2) Viability assays were done on a number of cells including MDA-MB-231, SKOV-3, H460, PC3, HCT-116, and SW480 cells. Cells were seeded in 96 well plates at a respective density of 5000 and 2000 cells per well and incubated at 37° C. in presence of 5% CO2 for 24 hours. Selected compounds were diluted into the media at various concentration ranging from 0.01 uM up to 100 uM. Diluted compounds were added onto the MDA-MB-231 cells. For the MDA-MB-231 SKOV3, H460, PC3, HCT-116, and SW480 cells, the compounds were added either alone or in presence of 1-3 ng/ml of TRAIL. After 72 hours cellular viability was evaluated by MTT based assays.

MDA-MB-231 = assay: Viability assay (MTT based), MDA-MB-231; assay type: cell-based; settings: Homo sapiens, MDA-MB-231 cells, 72 hours, read-out: MDA-MB-231 ED50
Method: as §1, §2

| EC50 (SKOV-3) [nM] | EC50 (MDA-MB-231) [nM] | Compound |
| --- | --- | --- |
| 57 |  | CN[C@@H](C)C(=O)N[C@@H](Cc1ccc(C#CCO[C@H](C)[C@H](NC(=O)[C@H](C)NC)C(=O)N2CCC[C@H]2CN(CCc2ccccc2)C(=O)[C@H](N)Cc2ccc(OC)cc2)cc1)C(=O)N1CCC[C@H]1CN(CCc1ccccc1)C(=O)C(F)(F)F [Compound 5] |
| 37 | 159 | CN[C@@H](C)C(=O)N[C@@H](Cc1ccc(C#Cc2ccc(C[C@H](NC(=O)[C@H](C)NC)C(=O)N3CCC[C@H]3CN(CCc3ccccc3)C(=O)C(F)(F)F)cc2)cc1)C(=O)N1CCC[C@H]1CN(CCc1ccccc1)C(=O)C(F)(F)F [Compound 4] |
| 67 |  | CN[C@@H](C)C(=O)N[C@@H](Cc1ccc(C#CC#Cc2ccc(C[C@H](NC(=O)[C@H](C)NC)C(=O)N3CCC[C@H]3CN(CCc3ccccc3)C(=O)C(F)(F)F)cc2)cc1)C(=O)N1CCC[C@H]1CN(CCc1ccccc1)C(=O)C(F)(F)F [Compound 3] |
| 1920 |  | CN[C@@H](CO)C(=O)N[C@@H](Cc1ccc(C#CCO[C@H](C)[C@H](NC(=O)[C@H](CO)NC)C(=O)N2CCC[C@H]2CN(CCc2ccccc2)C(=O)[C@H](N)Cc2ccc(OC)cc2)cc1)C(=O)N1CCC[C@H]1CN(CCc1ccccc1)C(=O)C(F)(F)F [Compound 8] |
| 136 |  | CN[C@@H](C)C(=O)N[C@H](C(=O)N1CCC[C@H]1CN(CCc1ccccc1)C(=O)[C@H](N)Cc1ccc(OC)cc1)[C@@H](C)OCC#Cc1ccc(C[C@H](NC(=O)[C@H](CO)NC)C(=O)N2CCC[C@H]2CN(CCc2ccccc2)C(=O)C(F)(F)F)cc1 [Compound 7] |
| 557 |  | CN[C@@H](C)C(=O)N[C@@H](Cc1ccc(C#CCO[C@H](C)[C@H](NC(=O)[C@H](CO)NC)C(=O)N2CCC[C@H]2CN(CCc2ccccc2)C(=O)[C@H](N)Cc2ccc(OC)cc2)cc1)C(=O)N1CCC[C@H]1CN(CCc1ccccc1)C(=O)C(F)(F)F [Compound 6] |
| 131 | 17 | CN[C@@H](C)C(=O)N[C@@H](Cc1ccc(C#CCO[C@H](C)[C@H](NC(=O)[C@H](C)NC)C(=O)N2CCC[C@H]2CN(CCc2ccccc2)C(=O)C(F)(F)F)cc1)C(=O)N1CCC[C@H]1CN(CCc1ccccc1)C(=O)C(F)(F)F [Compound 1] |
|  | 150 | CN[C@@H](C)C(=O)N[C@@H](Cc1ccc(-c2ccc(C[C@H](NC(=O)[C@H](C)NC)C(=O)N3CCC[C@H]3CN(CCc3ccccc3)C(=O)C(F)(F)F)cc2)cc1)C(=O)N1CCC[C@H]1CN(CCc1ccccc1)C(=O)C(F)(F)F [Compound 2] |
